# Columns and labels:
# Assay type in all cases: functional
# Staphylococcus aureus = assay: Antibacterial activity against Staphylococcus aureus assessed as growth inhibition after 24 hr by two fold serial dilution method; conditions: for MIC: Staphylococcus aureus, 24 h
# Escherichia coli = assay: Antibacterial activity against Escherichia coli assessed as growth inhibition after 24 hr by two-fold serial dilution method; conditions: for MIC: Escherichia coli, 24 h
# Bacillus subtilis = assay: Antibacterial activity against Bacillus subtilis assessed as growth inhibition after 24 hr by two fold serial dilution method
# Pseudomonas aeruginosa = assay: Antibacterial activity against Pseudomonas aeruginosa assessed as growth inhibition after 24 hr by two-fold serial dilution method
# UO-31 = assay: Growth inhibition of Homo sapiens (human) UO31 cells at 10 uM after 48 hr by coulter counter analysis; conditions: UO-31, 48 h, read-out: GI
# SNB-75 = assay: Growth inhibition of Homo sapiens (human) SNB75 cells at 10 uM after 48 hr by coulter counter analysis; conditions: SNB-75, 48 h, read-out: GI
# MCF7 = assay: Growth inhibition of Homo sapiens (human) MCF7 cells at 10 uM after 48 hr by coulter counter analysis; conditions: MCF7, 48 h, read-out: GI
# HOP-92 = assay: Growth inhibition of Homo sapiens (human) HOP92 cells at 10 uM after 48 hr by coulter counter analysis; conditions: HOP-92, 48 h, read-out: GI
# SN12C = assay: Growth inhibition of Homo sapiens (human) SN12C cells at 10 uM after 48 hr by coulter counter analysis; conditions: read-out: GI
# NCI-H522 = assay: Growth inhibition of Homo sapiens (human) NCI-H522 cells at 10 uM after 48 hr by coulter counter analysis; conditions: NCI-H522, 48 h, read-out: GI
MIC (Staphylococcus aureus) [µg/mL],MIC (Escherichia coli) [µg/mL],MIC (Bacillus subtilis) [µg/mL],MIC (Pseudomonas aeruginosa) [µg/mL],Structure (SMILES),-logMIC (Staphylococcus aureus),-logMIC (Escherichia coli),inhibition of growth at 10 µM (UO-31) [%],inhibition of growth at 10 µM (SNB-75) [%],inhibition of growth at 10 µM (MCF7) [%],inhibition of growth at 10 µM (HOP-92) [%],inhibition of growth at 10 µM (SN12C) [%],inhibition of growth at 10 µM (NCI-H522) [%]
2.5,2.5,2.5,> 100,COc1cc(-n2c(=O)c3ccccc3c3ccccc3c2=O)cc(OC)c1OC,5.19,5.19,,,,,,
8.7,9,9,> 100,COc1cc(N2C(=O)c3nccnc3C2=O)cc(OC)c1OC,4.56,4.54,12.5,-2.75,4.31,10.2,5.86,4.82
2.2,4.2,2,> 100,O=C(O)c1ccc(-n2c(=O)c3ccccc3c3ccccc3c2=O)cc1,5.19,4.91,15.4,11,10.1,10.1,6.3,7.66
2,2.5,2.2,> 100,COc1cc(OC)c(N2C(=O)c3cccc4cccc(c34)C2=O)c(OC)c1,5.26,5.16,21,13.2,6.42,30.2,19.3,13.6
1.8,4,2.2,> 100,O=C1c2cccc3cccc(c23)C(=O)N1c1ccc([N+](=O)[O-])cc1[N+](=O)[O-],5.31,4.96,,,,,,
20,6.9,20,20,Cc1cc(Cl)c(N2C(=O)c3nccnc3C2=O)c(Cl)c1,4.19,4.65,,,,,,
19.5,2.6,19.2,10,Cc1cc(Cl)c(-n2c(=O)c3ccccc3c3ccccc3c2=O)c(Cl)c1,4.29,5.17,34.7,10.1,1.96,1.58,14.8,1.31
> 100,> 100,> 100,> 100,O=c1c2ccccc2c2ccccc2c(=O)n1CCN1CCOCC1,3.52,3.52,,,,,,
1.6,3.9,2,> 100,O=C(O)c1ccc(N2C(=O)c3cccc4cccc(c34)C2=O)cc1,5.3,4.91,,,,,,
> 100,> 100,> 100,> 100,O=C1c2cccc3cccc(c23)C(=O)N1CCN1CCOCC1,3.49,3.49,,,,,,
2.5,2.5,2.5,> 100,COc1cc(OC)c(-n2c(=O)c3ccccc3c3ccccc3c2=O)c(OC)c1,5.19,5.19,,,,,,
18.2,2.2,20,10,Cc1cc(Cl)c(N2C(=O)c3cccc4cccc(c34)C2=O)c(Cl)c1,4.29,5.21,26.8,6.64,-1.03,-15.5,3.72,5.32
8.4,10.9,8,> 100,O=C1c2nccnc2C(=O)N1c1ccc([N+](=O)[O-])cc1[N+](=O)[O-],4.57,4.46,15.3,11.4,3.56,-28.1,6.83,3.89
> 100,> 100,> 100,> 100,O=C1c2nccnc2C(=O)N1CCN1CCOCC1,3.42,3.42,,,,,,
18,2,20,10,O=C1c2cccc3cccc(c23)C(=O)N1c1c(Cl)cc(Cl)cc1Cl,4.32,5.27,20.9,39.1,3.55,,6.09,4.37
> 100,> 100,> 100,> 100,O=C1c2nccnc2C(=O)N1CCc1ccccn1,3.41,3.41,20.9,11.8,2.87,-3.5,,3.84
> 100,> 100,> 100,> 100,O=C1c2cccc3cccc(c23)C(=O)N1CCc1ccccn1,3.48,3.48,,,,,,
19,2.4,18.5,10,O=c1c2ccccc2c2ccccc2c(=O)n1-c1c(Cl)cc(Cl)cc1Cl,4.33,5.22,10.8,45.6,-1.42,33.6,-1.37,4.08
> 100,> 100,> 100,> 100,O=c1c2ccccc2c2ccccc2c(=O)n1CCc1ccccn1,3.53,3.53,32.5,13.1,28.3,13.5,8.53,11.4
2.9,4,2.9,> 100,O=C1c2cccc3cccc(c23)C(=O)N1c1ccc([N+](=O)[O-])cc1,5.04,4.9,,,,,,
2.2,4,2.3,> 100,O=c1c2ccccc2c2ccccc2c(=O)n1-c1ccc([N+](=O)[O-])cc1[N+](=O)[O-],5.25,4.99,18.1,28.6,-0.39,26.4,1.4,5.5
8.9,10.5,8.5,> 100,O=C1c2nccnc2C(=O)N1c1ccc([N+](=O)[O-])cc1,4.48,4.41,,,,,,
8.5,10.9,8,> 100,O=C(O)c1ccc(N2C(=O)c3nccnc3C2=O)cc1,4.5,4.39,,,,,,
2,2.5,2.2,> 100,COc1cc(N2C(=O)c3cccc4cccc(c34)C2=O)cc(OC)c1OC,5.26,5.16,,,,,,
8.7,9,9,> 100,COc1cc(OC)c(N2C(=O)c3nccnc3C2=O)c(OC)c1,4.56,4.54,,,,,,

Structure (SMILES),MIC (Staphylococcus aureus) [µg/mL],MIC (Escherichia coli) [µg/mL],MIC (Bacillus subtilis) [µg/mL],MIC (Pseudomonas aeruginosa) [µg/mL],-logMIC (Staphylococcus aureus),-logMIC (Escherichia coli),inhibition of growth at 10 µM (UO-31) [%],inhibition of growth at 10 µM (SNB-75) [%],inhibition of growth at 10 µM (MCF7) [%],inhibition of growth at 10 µM (HOP-92) [%],inhibition of growth at 10 µM (SN12C) [%],inhibition of growth at 10 µM (NCI-H522) [%]
CC1(C)S[C@@H]2[C@H](NC(=O)[C@H](N)c3ccccc3)C(=O)N2[C@H]1C(=O)O [AMPICILLIN],2.2,2.2,2.2,10,,,,,,,,

# Source: ChEMBL document CHEMBL3046429, “Synthesis, molecular modeling study, preliminary antibacterial, and antitumor evaluation of N-substituted naphthalimides and their structural analogues” (2013)
